From paper PMC10442743 (Dalton Transactions (Cambridge, England : 2003), 2023)

test system: not listed separately; assay: Molar conductivity in acetonitrile; type: physicochemical; conditions: 1 mM in acetonitrile, 25 °C
Protocol: The molar conductivity (ΛM, reported as S·cm2·mol–1) of solutions of 11CA in acetonitrile (1 mM) were measured in a Radiometer Copenhagen CDM92 equipped with a conductivity cell CDC641T glass platinum electrode at room temperature (25 °C). The conductivity of the pure solvent was used as standard controls.
Table S3. Solubility in water at 25 °C, n-octanol/water partition coefficient and molar conductivity of the 11CA. * below limit of detection = 5 ppt.

Row | SMILES | Conductivity (molar conductivity) [S·cm2/mol]
1 | Cc1cccc[c]1[Ru+]([Cl])([PH](c1ccccc1)(c1ccccc1)c1ccccc1)[PH](c1ccccc1)(c1ccccc1)c1ccccc1.F[B-](F)(F)F [Compound 11BF4] | 124
2 | Cc1cccc[c]1[Ru+]([Cl])([PH](c1ccccc1)(c1ccccc1)c1ccccc1)[PH](c1ccccc1)(c1ccccc1)c1ccccc1.O=[N+]([O-])[O-] [Compound 11NO3] | 141
3 | Cc1cccc[c]1[Ru+]([Cl])([PH](c1ccccc1)(c1ccccc1)c1ccccc1)[PH](c1ccccc1)(c1ccccc1)c1ccccc1.F[P-](F)(F)(F)(F)F [Compound 11PF6] | 150

test system: ctDNA; assay: Circular dichroism / induced circular dichroism with calf thymus DNA; conditions: DNA, 24 h, 37 °C
Protocol: Calf thymus (ct) DNA (Merck®) was used to perform the circular dichroism assay to detect conformational changes in the ctDNA induced by the compounds. CD spectral data was collected on a Chirascan™ V100 (Applied Photophysics) spectropolarimeter equipped with a large area Avalanche photodiodes detector and computer-controlled thermoelectrical cell holder using a 1 cm path length quartz cuvette. CD spectra of ctDNA in the absence and presence of different concentrations of 11Cl were recorded at wavelengths ranging from 320 to 190 nm under constant nitrogen flush at 25 °C. For each CD spectrum, the number of scans was set to 5, and spectral data were collected at 0.1 ms intervals. Additionally, methyl green (MG) and 4′,6-diamidino-2-phenylindole (DAPI), and propidium iodide (PI) were analyzed as minor and major groove binders and as an intercalator, respectively, to help identify the binding mode of 11Cl to DNA. Samples were prepared in 10 mM Tris-HCl buffer (pH 7.6) with 1 mM EDTA. The concentration of ctDNA was fixed at 100 μM (concerning base pairs) and the ctDNA to 11Cl ratio was varied between 0 and 1. The samples were incubated for 24 h at 37 °C and then analyzed in the CD spectropolarimeter.

Row | SMILES | CD band 220 nm (hydrogen bonding), intensity change | CD band 220 nm (hydrogen bonding), wavelength shift | CD band 246 nm (helicity), intensity change | CD band 246 nm (helicity), wavelength shift | CD band 268−280 nm (base-pair stacking interactions), intensity change | CD band 268−280 nm (base-pair stacking interactions), wavelength shift
4 | CC[N+](C)(CC)CCC[n+]1c(-c2ccccc2)c2cc(N)ccc2c2ccc(N)cc21.[I-].[I-] [PI, propidium iodide] | Unchanged | Blue shift | Hyperchromic | Unchanged | Hyperchromic | Unchanged

test system: not listed separately; assay: n-octanol/water partition coefficient (shake-flask, ICP-MS); conditions: not given
Protocol: The saturated solutions were filtered
(DigiPREP Jr. 15ml, 40 Pos, SCP Science). The digestion program was the following: 15
After the digestion, the sample
Samples were further diluted
range. All measurements were performed in triplicates.
lipophilicity of a compound. This assay was performed following the Shake-flask method
organic and aqueous phase. Aliquots of each phase were taken and analyzed separately
range. The partition coefficient was calculated as P!"=
respectively. All measurements were performed in triplicates.

Row | SMILES | LogPow
5 | Cc1cccc[c]1[Ru+]([Cl])([PH](c1ccccc1)(c1ccccc1)c1ccccc1)[PH](c1ccccc1)(c1ccccc1)c1ccccc1.F[B-](F)(F)F [Compound 11BF4] | 1.60 ± 0.20
6 | Cc1cccc[c]1[Ru+]([Cl])([PH](c1ccccc1)(c1ccccc1)c1ccccc1)[PH](c1ccccc1)(c1ccccc1)c1ccccc1.O=[N+]([O-])[O-] [Compound 11NO3] | 1.57 ± 0.29
7 | Cc1cccc[c]1[Ru+]([Cl])([PH](c1ccccc1)(c1ccccc1)c1ccccc1)[PH](c1ccccc1)(c1ccccc1)c1ccccc1.F[P-](F)(F)(F)(F)F [Compound 11PF6] | 1.91 ± 0.23

test system: L929; assay: MTT cytotoxicity assay, L929 fibroblasts (and selectivity index); type: cell-based, mouse; conditions: 24 h; IC50 L929 divided by average IC50 of the breast cancer cell lines
Protocol: (§1) The cytotoxicity of 1–11CA was assessed against human breast cancer MCF-7 and MDA-MB-231 cells, and non-tumorigenic adherent mouse fibroblast connective tissue L929 cells using the MTT assay after 24 and 72 h (Tables S5 ^† and Table 1, respectively).
(§2) Then, necessary dilutions were made using the supplement DMEM, to prepare the range of tested concentrations. Since DMSO was used to solubilize the compounds, a supplemented DMEM + DMSO (at the same percentage as in the sequential dilutions) was considered as a control in the 3-[4,5-dimetylthiazole-2-yl]-2,5-diphenyltetrazolium bromide (MTT) assay.
(§3) L929, MCF-7, and MDA-MB-231 cell lines were cultured in DMEM supplemented with 10% (v/v) FBS and 1% (v/v) of penicillin–streptomycin. The cells were incubated in a humidified chamber at 37 °C under saturated air with a 5% CO2 atmosphere. Cells were passed at 80%–90% of confluency with 0.25% (w/v) trypsin and the cell culture media was changed every 2–3 days.
(§4) The compounds were tested on two breast cancer cell lines (MCF-7 and MDA-MB-231) and L929 fibroblasts, used as a reference for the safety evaluation according to ISO 10993-1:2009 “Biological evaluation of medical devices”. Cells were seeded on sterile 96-well plates at 50 000 cells per well (L929) and 20 000 cells per well (MCF-7 and MDA-MB-231) in supplemented DMEM medium (100 μL) for 24 h. The culture medium was removed and new media containing different concentrations of the compounds (0–1000 μM) was added to the wells (100 μL). Control cells were incubated under the same conditions in the absence of a compound. Cells were incubated for 24 and 72 h under the same conditions described above. Then, the medium was removed, and the cells were incubated with 3-(4,5-dimethylthiazol-2-yl)-2,5-diphenyltetrazolium bromide (MTT; 0.5 mg mL^−1) for 3 h. After this time, the medium was removed, and formazan crystals were solubilized with DMSO (100 μL per well). The absorbance in each well was read on a SynergyTM HT Multimode microplate reader (BioTek Instruments; Winooski, VT, USA) at 570 and 630 nm (for background correction), and the cell viability was calculated according to the following equation (eqn (1)):1 [drawing 3] where OD570(sample) and OD630(sample) are the optical densities of the solutions containing the compounds and OD570(control) and OD630(control) are controls without compound.
(§5) Each apoptosis value determination represents the mean ± standard deviation of 2 independent assays. The IC50 values were obtained using GraphPad Prism software and ANOVA (analysis of variance) was performed to determine the statistical difference between the IC50 values of different cell lines.

Row | SMILES | SI (selectivity index)
8 | Cc1cccc[c]1[Ru+]([Cl])([PH](c1ccccc1)(c1ccccc1)c1ccccc1)[PH](c1ccccc1)(c1ccccc1)c1ccccc1.F[B-](F)(F)F [Compound 11BF4] | 0.8
9 | Cc1cccc[c]1[Ru+]([Cl])([PH](c1ccccc1)(c1ccccc1)c1ccccc1)[PH](c1ccccc1)(c1ccccc1)c1ccccc1.O=[N+]([O-])[O-] [Compound 11NO3] | 0.7
10 | Cc1cccc[c]1[Ru+]([Cl])([PH](c1ccccc1)(c1ccccc1)c1ccccc1)[PH](c1ccccc1)(c1ccccc1)c1ccccc1.F[P-](F)(F)(F)(F)F [Compound 11PF6] | 2.5

same assay, conditions: 24 h exposure, MTT; read-out: IC50 (µM) (average ± standard deviation) 24 h L929

Row | SMILES | IC50 [µM]
11 | Cc1cccc[c]1[Ru+]([Cl])([PH](c1ccccc1)(c1ccccc1)c1ccccc1)[PH](c1ccccc1)(c1ccccc1)c1ccccc1.F[B-](F)(F)F [Compound 11BF4] | 3.8 ± 0.4
12 | Cc1cccc[c]1[Ru+]([Cl])([PH](c1ccccc1)(c1ccccc1)c1ccccc1)[PH](c1ccccc1)(c1ccccc1)c1ccccc1.O=[N+]([O-])[O-] [Compound 11NO3] | 3.7 ± 0.4
13 | Cc1cccc[c]1[Ru+]([Cl])([PH](c1ccccc1)(c1ccccc1)c1ccccc1)[PH](c1ccccc1)(c1ccccc1)c1ccccc1.F[P-](F)(F)(F)(F)F [Compound 11PF6] | 10 ± 1

same assay, conditions: 72 h; IC50 L929 divided by average IC50 of the breast cancer cell lines

Row | SMILES | SI (selectivity index)
14 | Cc1cccc[c]1[Ru+]([Cl])([PH](c1ccccc1)(c1ccccc1)c1ccccc1)[PH](c1ccccc1)(c1ccccc1)c1ccccc1.F[B-](F)(F)F [Compound 11BF4] | 6.8
15 | Cc1cccc[c]1[Ru+]([Cl])([PH](c1ccccc1)(c1ccccc1)c1ccccc1)[PH](c1ccccc1)(c1ccccc1)c1ccccc1.O=[N+]([O-])[O-] [Compound 11NO3] | 11.1
16 | Cc1cccc[c]1[Ru+]([Cl])([PH](c1ccccc1)(c1ccccc1)c1ccccc1)[PH](c1ccccc1)(c1ccccc1)c1ccccc1.F[P-](F)(F)(F)(F)F [Compound 11PF6] | 1.1

same assay, conditions: 72 h exposure, MTT; read-out: IC50 (μM) (average ± standard deviation) 72 h L929

Row | SMILES | IC50 [µM]
17 | Cc1cccc[c]1[Ru+]([Cl])([PH](c1ccccc1)(c1ccccc1)c1ccccc1)[PH](c1ccccc1)(c1ccccc1)c1ccccc1.F[B-](F)(F)F [Compound 11BF4] | 1.13 ± 0.05
18 | Cc1cccc[c]1[Ru+]([Cl])([PH](c1ccccc1)(c1ccccc1)c1ccccc1)[PH](c1ccccc1)(c1ccccc1)c1ccccc1.O=[N+]([O-])[O-] [Compound 11NO3] | 1.04 ± 0.05
19 | Cc1cccc[c]1[Ru+]([Cl])([PH](c1ccccc1)(c1ccccc1)c1ccccc1)[PH](c1ccccc1)(c1ccccc1)c1ccccc1.F[P-](F)(F)(F)(F)F [Compound 11PF6] | 0.17 ± 0.01

test system: MCF-7; assay: MTT cytotoxicity assay, MCF-7 cells; type: cell-based, human; conditions: 24 h exposure, MTT; read-out: IC50 (µM) (average ± standard deviation) 24 h MCF-7
Protocol: as §1, §2, §3, §4, §5

Row | SMILES | IC50 [µM]
20 | Cc1cccc[c]1[Ru+]([Cl])([PH](c1ccccc1)(c1ccccc1)c1ccccc1)[PH](c1ccccc1)(c1ccccc1)c1ccccc1.F[B-](F)(F)F [Compound 11BF4] | 5.4 ± 0.6
21 | Cc1cccc[c]1[Ru+]([Cl])([PH](c1ccccc1)(c1ccccc1)c1ccccc1)[PH](c1ccccc1)(c1ccccc1)c1ccccc1.O=[N+]([O-])[O-] [Compound 11NO3] | 5.9 ± 0.5
22 | Cc1cccc[c]1[Ru+]([Cl])([PH](c1ccccc1)(c1ccccc1)c1ccccc1)[PH](c1ccccc1)(c1ccccc1)c1ccccc1.F[P-](F)(F)(F)(F)F [Compound 11PF6] | 3 ± 0.3

same assay, conditions: 72 h exposure, MTT; read-out: IC50 (μM) (average ± standard deviation) 72 h MCF-7

Row | SMILES | IC50 [µM]
23 | Cc1cccc[c]1[Ru+]([Cl])([PH](c1ccccc1)(c1ccccc1)c1ccccc1)[PH](c1ccccc1)(c1ccccc1)c1ccccc1.F[B-](F)(F)F [Compound 11BF4] | 0.14 ± 0.01
24 | Cc1cccc[c]1[Ru+]([Cl])([PH](c1ccccc1)(c1ccccc1)c1ccccc1)[PH](c1ccccc1)(c1ccccc1)c1ccccc1.O=[N+]([O-])[O-] [Compound 11NO3] | 0.078 ± 0.005
25 | Cc1cccc[c]1[Ru+]([Cl])([PH](c1ccccc1)(c1ccccc1)c1ccccc1)[PH](c1ccccc1)(c1ccccc1)c1ccccc1.F[P-](F)(F)(F)(F)F [Compound 11PF6] | 0.15 ± 0.01

test system: MDA-MB-231; assay: MTT cytotoxicity assay, MDA-MB-231 cells; type: cell-based, human; conditions: 24 h exposure, MTT; read-out: IC50 (µM) (average ± standard deviation) 24 h MDA-MB-231
Protocol: as §1, §2, §3, §4, §5

Row | SMILES | IC50 [µM]
26 | Cc1cccc[c]1[Ru+]([Cl])([PH](c1ccccc1)(c1ccccc1)c1ccccc1)[PH](c1ccccc1)(c1ccccc1)c1ccccc1.F[B-](F)(F)F [Compound 11BF4] | 4.3 ± 0.4
27 | Cc1cccc[c]1[Ru+]([Cl])([PH](c1ccccc1)(c1ccccc1)c1ccccc1)[PH](c1ccccc1)(c1ccccc1)c1ccccc1.O=[N+]([O-])[O-] [Compound 11NO3] | 4.6 ± 0.3
28 | Cc1cccc[c]1[Ru+]([Cl])([PH](c1ccccc1)(c1ccccc1)c1ccccc1)[PH](c1ccccc1)(c1ccccc1)c1ccccc1.F[P-](F)(F)(F)(F)F [Compound 11PF6] | 5 ± 0.1

same assay, conditions: 72 h exposure, MTT; read-out: IC50 (μM) (average ± standard deviation) 72 h MDA-MB-231

Row | SMILES | IC50 [µM]
29 | Cc1cccc[c]1[Ru+]([Cl])([PH](c1ccccc1)(c1ccccc1)c1ccccc1)[PH](c1ccccc1)(c1ccccc1)c1ccccc1.F[B-](F)(F)F [Compound 11BF4] | 0.19 ± 0.01
30 | Cc1cccc[c]1[Ru+]([Cl])([PH](c1ccccc1)(c1ccccc1)c1ccccc1)[PH](c1ccccc1)(c1ccccc1)c1ccccc1.O=[N+]([O-])[O-] [Compound 11NO3] | 0.109 ± 0.009
31 | Cc1cccc[c]1[Ru+]([Cl])([PH](c1ccccc1)(c1ccccc1)c1ccccc1)[PH](c1ccccc1)(c1ccccc1)c1ccccc1.F[P-](F)(F)(F)(F)F [Compound 11PF6] | 0.16 ± 0.01

test system: not listed separately; assay: Solubility in water (ICP-MS); conditions: 25 °C, limit of detection = 5 ppt
Protocol: sonication, the mixtures were stirred at 25 °C for 1 h. The saturated solutions were filtered
to remove any insoluble solids, dissolved in 0.5 mL of MilliQ water, and analyzed using
ICP-MS. Samples were submitted to acidic digestion with 2 mL of concentrated HNO3
min to heat to 100°C and keep at 100°C for 60 min. After the digestion, the sample
volumes were precisely adjusted to 5 mL with MilliQ water. Samples were further diluted
30 times with 2% HNO3 solution and their Ru content was analyzed by ICP-MS using
standard mode on NexIon 350 D ICP-MS instrument (PerkinElmer). Yttrium was added
as an internal standard at a concentration of 2 ppb to all the solution and Ru quantitation
was performed using an external calibration curve with standards in the 0.05-50 ppb

Row | SMILES | Solubility (μM) [µM] | Solubility (μg/mL) [µg/mL]
32 | Cc1cccc[c]1[Ru+]([Cl])([PH](c1ccccc1)(c1ccccc1)c1ccccc1)[PH](c1ccccc1)(c1ccccc1)c1ccccc1.F[B-](F)(F)F [Compound 11BF4] | 5 ± 2 | 4 ± 1
33 | Cc1cccc[c]1[Ru+]([Cl])([PH](c1ccccc1)(c1ccccc1)c1ccccc1)[PH](c1ccccc1)(c1ccccc1)c1ccccc1.O=[N+]([O-])[O-] [Compound 11NO3] | 268 ± 42 | 218 ± 34
34 | Cc1cccc[c]1[Ru+]([Cl])([PH](c1ccccc1)(c1ccccc1)c1ccccc1)[PH](c1ccccc1)(c1ccccc1)c1ccccc1.F[P-](F)(F)(F)(F)F [Compound 11PF6] | 0.6 ± 0.2 | 0.6 ± 0.2
